# Legend:
# [1] = test system: colorectal (HCT116 and SW620) cell line models; assay: MTS growth inhibition assay; type: cell-based; conditions: 5-FU between 0 and 100 μmol/L; both colorectal cancer cell lines (HCT116 and SW620)
# Method: The Cell Titer AQueous MTS assay (Promega) is carried out according to the manufacturers guidelines. […] Fraction affected (FA) is calculated from the percent growth inhibition: FA=(100−% growth inhibition)/100.
# Test compounds are evaluated for their antitumor activity in colorectal cancer cells using the MTS growth inhibition assay. HCT116 and SW620 cells are exposed to increasing concentrations of each agent for 72 hours and growth inhibition is directly compared to vehicle-treated controls. The NSCLC cell lines A549 and H1299 are exposed to increasing concentrations of each agent for 72 hours and growth inhibition is directly compared to vehicle-treated controls.
# Simultaneous treatment with increasing concentrations of 5-FU and a test compound at fixed concentrations of 25 μmol/L is determined.
# [2] = test system: colorectal (HCT116), breast (MCF-7) and non-small cell lung (H1299, A549, H358 and H460) cell line models; assay: Colony forming assay; type: cell-based; conditions: FUdR between 0.5 and 2.5 μmol/L; all cell lines evaluated
# Method: Colony forming assay showing the ability of colon (SW620, HCT116), non-small cell lung (A549, H460, H1299 and H358) and breast (MCF7) cancer cells to survive and proliferate following transient 24 hour exposure to test compounds, FUdR and combinations are determined. Specifically, cells are seeded at densities between 50 and 100 cells/well in 24-well plates. Twenty-four hours later, cells are treated with increasing concentrations of a rtest compound, a fixed dose of FUdR and combinations of these. After 24 hours, drug is removed, cells are rinsed and allowed to outgrow for 10-14 days. At the conclusion of the outgrowth, cells are fixed in 60% ice cold methanol and stained with 0.1% crystal violet, scanned and counted. Data is presented as percentage of untreated controls (mean±SD). Fraction affected and combination indexes are calculated according to the method of Chou and Talalay where <1 is indicative of a synergistic drug interaction.
# Colony forming assays are performed to evaluate the effectiveness of test compounds alone and in combination with the fluoropyrimidine thymidylate synthase (TS) inhibitor fluorodeoxyuridine (FUdR) at reducing cancer cell viability in colorectal (HCT116), breast (MCF-7) and non-small cell lung (H1299, A549, H358 and H460) cell line models. […]
Compound,growth inhibition [1],colonies formed [2]
"O=c1[nH]cc(F)c(=O)[nH]1 [5-FU, 5-fluorouracil]",dose-dependent increases in growth inhibition,–
"O=c1[nH]c(=O)n([C@H]2C[C@H](O)[C@@H](CO)O2)cc1F [FUdR, fluorodeoxyuridine]",–,dose-dependent decreases in colonies formed

# Source: patent publication US12098133B2, “Hydantoin containing deoxyuridine triphosphatase inhibitors” (CV6 Therapeutics (NI) Limited, priority 2015, dated 2024)
